This is an account of results in patent publication US11591355B2 (Peloton Therapeutics, Inc., priority 2017, dated 2023).

Experiment [1] concerns the target T1, Human CD73 (Homo sapiens, UniProt P21589).
T1 construct: purchased R&D Systems; host or cells: CHO cells
T1 sequence (P21589 27-549): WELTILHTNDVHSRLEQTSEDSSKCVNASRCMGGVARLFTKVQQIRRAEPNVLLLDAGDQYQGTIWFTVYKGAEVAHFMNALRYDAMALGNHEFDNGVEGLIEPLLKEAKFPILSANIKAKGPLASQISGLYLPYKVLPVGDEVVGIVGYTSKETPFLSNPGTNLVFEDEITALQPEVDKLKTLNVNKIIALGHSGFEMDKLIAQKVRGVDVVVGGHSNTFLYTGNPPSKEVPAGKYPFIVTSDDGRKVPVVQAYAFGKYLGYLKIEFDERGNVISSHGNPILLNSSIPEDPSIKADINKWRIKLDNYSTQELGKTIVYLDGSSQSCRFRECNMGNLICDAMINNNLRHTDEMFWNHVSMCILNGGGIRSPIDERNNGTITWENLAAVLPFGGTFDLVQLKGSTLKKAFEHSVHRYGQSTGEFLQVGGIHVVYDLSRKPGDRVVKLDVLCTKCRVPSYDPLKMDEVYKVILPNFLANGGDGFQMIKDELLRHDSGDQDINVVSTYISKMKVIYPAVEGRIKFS
The experiment in a line: CD73 Enzyme Assay. Conditions: 0.25 nM hCD73, 25 μM AMP, kinetic read at 360 nm; read-out: CD73 Enzyme Assay IC50. It is filed as biochemical.

For experiment [2], the target named is T2, CD73 on U138 human neuroglioma cells (Homo sapiens, UniProt P21589).
T2 construct: U138 cells were obtained from ATCC and cultured in DMEM with 10% FBS; host or cells: U138 human neuroglioma cells
T2 sequence (P21589 27-549): T1 sequence (P21589 27-549)
In words: CD73 Cell-Based Assay. The following applies: U138 cells, AMP substrate, 2 hours at 37° C., inorganic phosphate by malachite green. The method in brief: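 Whole U138 cells washed free of phosphate were incubated with 200 μM AMP (mixture concentration before equal-volume addition) plus compound in HEPES-buffered saline, pH 7.4, for 2 h at 37 °C, 5% CO2. Adenosine-forming activity read as inorganic phosphate released into supernatant by malachite green.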

Regarding `CCN(c1nc(Cl)nc2c1ccn2[C@@H]1O[C@H](COCP(=O)(O)O)[C@@H](O)[C@H]1O)C1CCCC1` [Compound 195, [(2R,3S,4R,5R)-5-[2-chloro-4-[cyclopentyl-(ethyl)amino]pyrrolo-[2,3-d]pyrimidin-7-yl]-3,4-dihydroxy-tetra-hydrofuran-2-yl]-methoxymethylphos-phonic acid], the half-inhibitory concentration (IC50) in experiment [1] and in experiment [2] was below 10 nM in each case.
On to `O=P(O)(O)COC[C@H]1O[C@@H](n2ccc3c(N(CC4CC4)C4CCCC4)nc(Cl)nc32)[C@H](O)[C@@H]1O` [Compound 196, [(2R,3S,4R,5R)-5-[2-chloro-4-[cyclopentyl-(cyclopropylmethyl)-amino]pyrrolo[2,3-d]-pyrimidin-7-yl]-3,4-dihydroxy-tetrahydro-furan-2-yl]methoxy-methylphosphonic acid], for which the IC50 in experiment [1] and in experiment [2] was below 10 nM throughout.
As for `C[C@@H](Nc1nc(Cl)nc2c1ccn2C1O[C@H](COCP(=O)(O)O)[C@@H](O)[C@H]1O)c1ccc(C2CC2)cc1` (stereo partly drawn) [Compound 197, [(2R,3S,4R,5R)-5-[2-chloro-4-[[(1R)-1-(4-cyclopropylphenyl)-ethyl]amino]pyrrolo-[2,3-d]pyrimidin-7-yl]-3,4-dihydroxy-tetra-hydrofuran-2-yl]-methoxymethylphos-phonic acid], the IC50 in experiment [1] and in experiment [2] was below 10 nM throughout.
Take `C[C@H](Nc1nc(Cl)nc2c1ccn2[C@@H]1O[C@H](COCP(=O)(O)O)[C@@H](O)[C@H]1O)c1ccc(C2CC2)cc1` [Compound 198, [(2R,3S,4R,5R)-5-[2-chloro-4-[[(1S)-1-(4-cyclopropylphenyl)-ethyl]amino]pyrrolo-[2,3-d]pyrimidin-7-yl]-3,4-dihydroxy-tetra-hydrofuran-2-yl]-methoxymethylphos-phonic acid]: the IC50 in experiment [1] and in experiment [2] was below 10 nM throughout.
`Cc1cn([C@@H]2O[C@H](COCP(=O)(O)O)[C@@H](O)[C@H]2O)c2nc(Cl)nc(NC3CCCC3)c12` [Compound 199, [(2R,3S,4R,5R)-5-[2-chloro-4-(cyclopentyl-amino)-5-methyl-pyrrolo[2,3-d]-pyrimidin-7-yl]-3,4-dihydroxy-tetrahydro-furan-2-yl]methoxy-methylphosphonic acid]: the IC50 in experiment [1] and in experiment [2] was above 1000 nM in each case.
As to `Cc1cc2c(NC3CCCC3)nc(Cl)nc2n1[C@@H]1O[C@H](COCP(=O)(O)O)[C@@H](O)[C@H]1O` [Compound 200, [(2R,3S,4R,5R)-5-[2-chloro-4-(cyclopentyl-amino)-6-methyl-pyrrolo[2,3-d]-pyrimidin-7-yl]-3,4-dihydroxy-tetrahydro-furan-2-yl]methoxy-methylphosphonic acid], the IC50 in experiment [1] and in experiment [2] was 10 to 100 nM in each case.
For `N#Cc1nc(N2CC3CCCC3C2)c2ccn([C@@H]3O[C@H](COCP(=O)(O)O)[C@@H](O)[C@H]3O)c2n1` (stereo partly drawn) [Compound 201, [(2R,3S,4R,5R)-5-[4-(3,3a,4,5,6,6a-hexa-hydro-1H-cyclopenta-[c]pyrrol-2-yl)-2-cyano-pyrrolo[2,3-d]-pyrimidin-7-yl]-3,4-dihydroxy-tetrahydro-furan-2-yl]methoxy-methylphosphonic acid], the IC50 in experiment [1] and in experiment [2] was below 10 nM each time.
With `COC(=O)OCOP(=O)(O)COC[C@H]1O[C@@H](n2ccc3c(NC4CCCC4)nc(Cl)nc32)[C@H](O)[C@@H]1O` [Compound 202, [(2R,3S,4R,5R)-5-[2-chloro-4-(cyclopentyl-amino)pyrrolo[2,3-d]-pyrimidin-7-yl]-3,4-dihydroxy-tetrahydro-furan-2-yl]methoxy-methyl-(methoxy-carbonyloxymethoxy)-phosphinic acid], the IC50 in experiment [1] and in experiment [2] was 10 to 100 nM throughout.
